In PubChem BioAssay AID1845204 (Molecular Pharmacology Branch, DTP, NCI, 2023):

Tested on: HSSY-II tumor spheroid viability
Experiment: Anticancer human tumor HSSY-II cell line growth inhibition;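 further: spheroids exposed to compounds for seven days before reading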;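 on viability, T/C: percent of DMSO vehicle control viability so 100% = untreated level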
Conditions: spheroids with HUVEC and MSC; for IC50: curve of first compound; for viability, T/C: stronger effect = lower value
Procedure, shortened: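 Complex tumor spheroids combined malignant cells with endothelial cells and mesenchymal stem cells. DNA-damaging drugs and DNA repair inhibitors were tested alone and in combination, at half-log dilutions down from clinical Cmax (top 10 microM if Cmax unknown), 0.25% DMSO final.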

[1] = second compound 30 pM, first compound 0.0316 µM
[2] = second compound 30 pM, first compound 0.1 µM
[3] = second compound 30 pM, first compound 0.316 µM
[4] = second compound 30 pM, first compound 1 µM
[5] = second compound 30 pM, first compound 3.16 µM
[6] = second compound 30 pM, first compound 10 µM
[7] = second compound 94.9 pM, first compound 0.0316 µM
[8] = second compound 94.9 pM, first compound 0.1 µM
[9] = second compound 94.9 pM, first compound 0.316 µM
[10] = second compound 94.9 pM, first compound 1 µM
[11] = second compound 94.9 pM, first compound 3.16 µM
[12] = second compound 94.9 pM, first compound 10 µM
[13] = second compound 0.0003 µM, first compound 0.0316 µM
[14] = second compound 0.0003 µM, first compound 0.1 µM
[15] = second compound 0.0003 µM, first compound 0.316 µM
[16] = second compound 0.0003 µM, first compound 1 µM
[17] = second compound 0.0003 µM, first compound 3.16 µM
[18] = second compound 0.0003 µM, first compound 10 µM
[19] = second compound 0.000949 µM, first compound 0.0316 µM
[20] = second compound 0.000949 µM, first compound 0.1 µM
[21] = second compound 0.000949 µM, first compound 0.316 µM
[22] = second compound 0.000949 µM, first compound 1 µM
[23] = second compound 0.000949 µM, first compound 3.16 µM
[24] = second compound 0.000949 µM, first compound 10 µM
[25] = second compound 0.003 µM, first compound 0.0316 µM
[26] = second compound 0.003 µM, first compound 0.1 µM
[27] = second compound 0.003 µM, first compound 0.316 µM
[28] = second compound 0.003 µM, first compound 1 µM
[29] = second compound 0.003 µM, first compound 3.16 µM
[30] = second compound 0.003 µM, first compound 10 µM

Q: What does the source list for `CC(C)n1c(=O)n(C)c2cnc3cc(F)c(-c4ccc(OCCCN5CCCCC5)nc4)cc3c21` + COc1cc2c(cc1O)CCNC21CSC2c3c(OC(C)=O)c(C)c4c(c3C(COC1=O)N1C(O)C3Cc5cc(C)c(OC)c(O)c5C(C21)N3C)OCO4?
A: IC50 (second compound 30 pM): > 10000 nM; IC50 (second compound 94.9 pM): 7160 nM; IC50 (second compound 0.0003 µM): < 31.6 nM; IC50 (second compound 0.000949 µM): < 31.6 nM; IC50 (second compound 0.003 µM): < 31.6 nM; viability, T/C [1]: 128%; viability, T/C [2]: 120%; viability, T/C [3]: 109%; viability, T/C [4]: 114%; viability, T/C [5]: 91.9%; viability, T/C [6]: 71.4%; viability, T/C [7]: 75.3%; viability, T/C [8]: 73.6%; viability, T/C [9]: 70%; viability, T/C [10]: 84.1%; viability, T/C [11]: 73.3%; viability, T/C [12]: 40.2%; viability, T/C [13]: 13.2%; viability, T/C [14]: 13.8%; viability, T/C [15]: 18%; viability, T/C [16]: 17.2%; viability, T/C [17]: 13.9%; viability, T/C [18]: 15.2%; viability, T/C [19]: 3.04%; viability, T/C [20]: 3.45%; viability, T/C [21]: 3.44%; viability, T/C [22]: 5.73%; viability, T/C [23]: 4.91%; viability, T/C [24]: 3.99%; viability, T/C [25]: 0.18%; viability, T/C [26]: 0.2%; viability, T/C [27]: 0.22%; viability, T/C [28]: 0.2%; viability, T/C [29]: 0.2%; viability, T/C [30]: 0.31%

Q: What does the source list for `CC1COCCN1c1cc(-c2ccnn2C)c2ccnc(-c3ccn[nH]3)c2n1` (stereo not given) + COc1cc2c(cc1O)CCNC21CSC2c3c(OC(C)=O)c(C)c4c(c3C(COC1=O)N1C(O)C3Cc5cc(C)c(OC)c(O)c5C(C21)N3C)OCO4?
A: IC50 (second compound 30 pM): < 31.6 nM; IC50 (second compound 94.9 pM): < 31.6 nM; IC50 (second compound 0.0003 µM): < 31.6 nM; IC50 (second compound 0.000949 µM): < 31.6 nM; IC50 (second compound 0.003 µM): < 31.6 nM; viability, T/C [1]: 14.4%; viability, T/C [2]: 6.1%; viability, T/C [3]: 4.22%; viability, T/C [4]: 3.28%; viability, T/C [5]: 3.45%; viability, T/C [6]: 5.25%; viability, T/C [7]: 8.99%; viability, T/C [8]: 6.52%; viability, T/C [9]: 3.33%; viability, T/C [10]: 2.89%; viability, T/C [11]: 3.13%; viability, T/C [12]: 4.37%; viability, T/C [13]: 5.86%; viability, T/C [14]: 5.4%; viability, T/C [15]: 3.44%; viability, T/C [16]: 2.22%; viability, T/C [17]: 1.93%; viability, T/C [18]: 2.79%; viability, T/C [19]: 2.32%; viability, T/C [20]: 1.87%; viability, T/C [21]: 1.51%; viability, T/C [22]: 0.74%; viability, T/C [23]: 0.11%; viability, T/C [24]: 0.34%; viability, T/C [25]: 0.49%; viability, T/C [26]: 0.59%; viability, T/C [27]: 0.48%; viability, T/C [28]: 0.35%; viability, T/C [29]: 0.32%; viability, T/C [30]: 0.51%

Q: How did the IC50 (second compound 30 pM) turn out when `COc1cc(C)[nH]c(=O)c1CN1CCc2c(Cl)cc(C(OC)C3COC3)c(Cl)c2C1=O` (stereo not given) + COc1cc2c(cc1O)CCNC21CSC2c3c(OC(C)=O)c(C)c4c(c3C(COC1=O)N1C(O)C3Cc5cc(C)c(OC)c(O)c5C(C21)N3C)OCO4 was run?
A: > 10000 nM

Q: What about the IC50 (second compound 94.9 pM) of the same molecule?
A: > 10000 nM

Q: What about the IC50 (second compound 0.0003 µM) of the same molecule?
A: < 31.6 nM

Q: What about the IC50 (second compound 0.000949 µM) of the same molecule?
A: < 31.6 nM

Q: What about the IC50 (second compound 0.003 µM) of the same molecule?
A: < 31.6 nM

Q: What about the viability, T/C [1] of the same molecule?
A: 132%

Q: And the viability, T/C [2]?
A: 117%

Q: And the viability, T/C [3]?
A: 108%

Q: And the viability, T/C [4]?
A: 92.5%

Q: And the viability, T/C [5]?
A: 86%

Q: And the viability, T/C [6]?
A: 90.1%

Q: What about the viability, T/C [7] of the same molecule?
A: 121%

Q: What about the viability, T/C [8] of the same molecule?
A: 99.9%

Q: And the viability, T/C [9]?
A: 97.8%

Q: And the viability, T/C [10]?
A: 89.7%

Q: And the viability, T/C [11]?
A: 81.4%

Q: What about the viability, T/C [12] of the same molecule?
A: 70.8%

Q: And the viability, T/C [13]?
A: 20.1%

Q: What about the viability, T/C [14] of the same molecule?
A: 15.3%

Q: What about the viability, T/C [15] of the same molecule?
A: 19.4%

Q: And the viability, T/C [16]?
A: 23.8%

Q: What about the viability, T/C [17] of the same molecule?
A: 21.3%

Q: And the viability, T/C [18]?
A: 19.3%

Q: And the viability, T/C [19]?
A: 3.35%

Q: And the viability, T/C [20]?
A: 3.82%

Q: And the viability, T/C [21]?
A: 3.22%

Q: And the viability, T/C [22]?
A: 4.24%

Q: And the viability, T/C [23]?
A: 4.87%

Q: And the viability, T/C [24]?
A: 4.39%

Q: And the viability, T/C [25]?
A: 0.33%

Q: And the viability, T/C [26]?
A: 0.35%

Q: What about the viability, T/C [27] of the same molecule?
A: 0.32%

Q: And the viability, T/C [28]?
A: 0.3%

Q: And the viability, T/C [29]?
A: 0.32%

Q: And the viability, T/C [30]?
A: 0.52%

Q: What does the source list for `COc1ccc([C@@H](O)c2cc(-c3ncnc4cc(N5CCOCC5)ccc34)c(F)cc2Cl)nn1` + COc1cc2c(cc1O)CCNC21CSC2c3c(OC(C)=O)c(C)c4c(c3C(COC1=O)N1C(O)C3Cc5cc(C)c(OC)c(O)c5C(C21)N3C)OCO4?
A: IC50 (second compound 30 pM): 1670 nM; IC50 (second compound 94.9 pM): 686 nM; IC50 (second compound 0.0003 µM): < 31.6 nM; IC50 (second compound 0.000949 µM): < 31.6 nM; IC50 (second compound 0.003 µM): < 31.6 nM; viability, T/C [1]: 117%; viability, T/C [2]: 114%; viability, T/C [3]: 93.3%; viability, T/C [4]: 67.1%; viability, T/C [5]: 29.7%; viability, T/C [6]: 6.65%; viability, T/C [7]: 101%; viability, T/C [8]: 93.8%; viability, T/C [9]: 75.6%; viability, T/C [10]: 38.6%; viability, T/C [11]: 7.08%; viability, T/C [12]: 1.86%; viability, T/C [13]: 16.7%; viability, T/C [14]: 10.5%; viability, T/C [15]: 7.96%; viability, T/C [16]: 3.36%; viability, T/C [17]: 0.77%; viability, T/C [18]: 0.17%; viability, T/C [19]: 2.36%; viability, T/C [20]: 2.67%; viability, T/C [21]: 0.85%; viability, T/C [22]: 0.08%; viability, T/C [23]: 0.11%; viability, T/C [24]: 0.22%; viability, T/C [25]: 0.22%; viability, T/C [26]: 0.26%; viability, T/C [27]: 0.22%; viability, T/C [28]: 0.24%; viability, T/C [29]: 0.25%; viability, T/C [30]: 0.34%

Q: Which results are given for `[2H]c1nc(C)nc([2H])c1-c1cc(NC[C@@H](C)c2cccc3c(C(=O)NC)ccnc23)ncn1` + COc1cc2c(cc1O)CCNC21CSC2c3c(OC(C)=O)c(C)c4c(c3C(COC1=O)N1C(O)C3Cc5cc(C)c(OC)c(O)c5C(C21)N3C)OCO4?
A: IC50 (second compound 30 pM): > 10000 nM; IC50 (second compound 94.9 pM): > 10000 nM; IC50 (second compound 0.0003 µM): < 31.6 nM; IC50 (second compound 0.000949 µM): < 31.6 nM; IC50 (second compound 0.003 µM): < 31.6 nM; viability, T/C [1]: 98%; viability, T/C [2]: 93.5%; viability, T/C [3]: 95.2%; viability, T/C [4]: 99.1%; viability, T/C [5]: 94.2%; viability, T/C [6]: 86.2%; viability, T/C [7]: 86.5%; viability, T/C [8]: 89%; viability, T/C [9]: 92.5%; viability, T/C [10]: 88.4%; viability, T/C [11]: 92.1%; viability, T/C [12]: 78.3%; viability, T/C [13]: 16.1%; viability, T/C [14]: 16%; viability, T/C [15]: 17.8%; viability, T/C [16]: 14.6%; viability, T/C [17]: 9.62%; viability, T/C [18]: 12%; viability, T/C [19]: 2.64%; viability, T/C [20]: 1.58%; viability, T/C [21]: 3.44%; viability, T/C [22]: 3.49%; viability, T/C [23]: 2.59%; viability, T/C [24]: 1.53%; viability, T/C [25]: 0.15%; viability, T/C [26]: 0.14%; viability, T/C [27]: 0.14%; viability, T/C [28]: 0.14%; viability, T/C [29]: 1.6%; viability, T/C [30]: 0.24%
